# Laboratory results from patent US9365522B2, “Pyrazole amide derivative” (AMGEN INC., priority 2015, dated 2016).
# Molecular target: T1, ligand binding domain of human ROR gamma (Homo sapiens, UniProt P51449)
# T1 construct: NM_001001523; expressed in transfected cells; host or cells: HEK293T
# T1 sequence (P51449 247-497 isoform P51449-2): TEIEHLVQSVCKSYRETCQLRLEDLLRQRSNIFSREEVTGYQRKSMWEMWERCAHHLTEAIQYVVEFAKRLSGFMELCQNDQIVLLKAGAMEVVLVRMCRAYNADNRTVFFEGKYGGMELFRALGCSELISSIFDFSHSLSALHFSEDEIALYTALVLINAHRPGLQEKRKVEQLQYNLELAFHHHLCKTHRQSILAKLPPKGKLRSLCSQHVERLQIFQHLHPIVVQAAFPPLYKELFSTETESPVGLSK
# Assay: ROR gamma reporter gene assay (GAL4-RORγ LBD luciferase, Dual-Glo)
# Format: cell-based
# Details: HEK293T cells transfected with pM-ROR gamma, 8 concentrations 3.5 nM to 10.5 μM, 24 h incubation; read-out: result (pIC50, inhibition of RORγ transcriptional activity) (converted)
# Summary of the method: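 Inhibition of RORγ-driven transcription was measured in HEK293T cells expressing a GAL4 fusion of the human RORγ LBD (aa 247-497), with renilla luciferase as internal control. Cells in 10% charcoal-stripped serum received compound (3.5 nM–10.5 μM) for 24 h.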
row,IC50,SMILES
1,45700 pM,"COc1cccc(Cl)c1C(=O)CN(CC(C)(C)C)C(=O)c1cnn([C@H]2CC[C@](C)(C(=O)O)CC2)c1C(F)(F)F [Example 253, trans-4-(4-((2-(2-chloro-6-methoxyphenyl)-2-oxoethyl)-(2,2-dimethylpropyl)carbamoyl)-5-(trifluoromethyl)pyrazol-1-yl)-1-methylcyclohexane-1-carboxylic acid]"
2,55000 pM,"COc1cccc(Cl)c1C(=O)CN(C(=O)c1cnn([C@H]2CC[C@](C)(C(=O)O)CC2)c1C(F)(F)F)C1CCC(C)(C)CC1 [Example 255, trans-4-(4-((2-(2-chloro-6-methoxyphenyl)-2-oxoethyl)-(4,4-dimethylcyclohexyl)carbamoyl)-5-(trifluoromethyl)pyrazol-1-yl)-1-methylcyclohexane-1-carboxylic acid]"
3,6030 pM,"CC1(C)CC(CN(CC(=O)c2c(Cl)cc(Cl)cc2Cl)C(=O)c2cnn(C34CCC(C(=O)O)(CC3)CC4)c2C(F)(F)F)C1 [Example 256, 4-(4-((3,3-dimethylcyclobutyl)methyl-(2-oxo-2-(2,4,6-trichlorophenyl)ethyl)carbamoyl)-5-(trifluoromethyl)pyrazol-1-yl)bicyclo[2.2.2]octane-1-carboxylic acid]"
4,20000 pM,"COc1cccc(Cl)c1C(=O)CN(CC1CC(C)(C)C1)C(=O)c1cnn(C23CCC(C(=O)O)(CC2)CC3)c1C(F)(F)F [Example 257, 4-(4-((2-(2-chloro-6-methoxyphenyl)-2-oxoethyl)-((3,3-dimethylcyclobutyl)methyl)carbamoyl)-5-(trifluoromethyl)pyrazol-1-yl)bicyclo[2.2.2]octane-1-carboxylic acid]"
5,6610 pM,"CC1(C)CC(CN(CC(=O)c2c(Cl)cccc2C(F)(F)F)C(=O)c2cnn(C34CCC(C(=O)O)(CC3)CC4)c2C(F)(F)F)C1 [Example 258, 4-(4-((2-(2-chloro-6-(trifluoromethyl)phenyl)-2-oxoethyl)-((3,3-dimethylcyclobutyl)methyl)carbamoyl)-5-(trifluoromethyl)pyrazol-1-yl)bicyclo[2.2.2]octane-1-carboxylic acid]"
6,117000 pM,"COc1cccc(Cl)c1C(=O)CN(CC1CCC(C)(C)CC1)C(=O)c1cnn([C@H]2CC[C@](C)(C(=O)O)CC2)c1C(F)(F)F [Example 259, trans-4-(4-((2-(2-chloro-6-methoxyphenyl)-2-oxoethyl)-((4,4-dimethylcyclohexyl)methyl)carbamoyl)-5-(trifluoromethyl)pyrazol-1-yl)-1-methylcyclohexane-1-carboxylic acid]"
7,6030 pM,"CC12CCC(CN(CC(=O)c3c(Cl)cc(Cl)cc3Cl)C(=O)c3cnn([C@H]4CC[C@](C)(C(=O)O)CC4)c3C(F)(F)F)(CC1)O2 [Example 260, trans-4-(4-((1-methyl-7-oxabicyclo[2.2.1]heptan-4-yl)methyl-(2-oxo-2-(2,4,6-trichlorophenyl)ethyl)carbamoyl)-5-(trifluoromethyl)pyrazol-1-yl)-1-methylcyclohexane-1-carboxylic acid]"
8,4570 pM,"Cc1cc(Cl)c(C(=O)CN(CC23CCC(C)(CC2)O3)C(=O)c2cnn(C34CCC(C(=O)O)(CC3)CC4)c2C(F)(F)F)c(Cl)c1 [Example 261, 4-(4-((2-(2,6-dichloro-4-methylphenyl)-2-oxoethyl)-((1-methyl-7-oxabicyclo[2.2.1]heptan-4-yl)methyl)carbamoyl)-5-(trifluoromethyl)pyrazol-1-yl)bicyclo[2.2.2]octane-1-carboxylic acid]"
9,40700 pM,"O=C(CN(CC12CCC(CC1)O2)C(=O)c1cnn([C@H]2CC[C@H](C(=O)O)CC2)c1C(F)(F)F)c1c(Cl)cncc1Cl [Example 262, trans-4-(4-((2-(3,5-dichloropyridin-4-yl)-2-oxoethyl)-(7-oxabicyclo[2.2.1]heptan-4-ylmethyl)carbamoyl)-5-(trifluoromethyl)pyrazol-1-yl)cyclohexane-1-carboxylic acid]"
10,5890 pM,"CC(C)(C)CN(CC(=O)c1c(Cl)cccc1C(F)(F)F)C(=O)c1cnn(C23CCC(C(=O)O)(CC2)CC3)c1C(F)(F)F [Example 263, 4-(4-((2-(2-chloro-6-(trifluoromethyl)phenyl)-2-oxoethyl)-(2,2-dimethylpropyl)carbamoyl)-5-(trifluoromethyl)pyrazol-1-yl)bicyclo[2.2.2]octane-1-carboxylic acid]"
11,8130 pM,"CC1(C)[C@@H]2C[C@H](N(CC(=O)c3c(Cl)cncc3Cl)C(=O)c3cnn([C@H]4CC[C@H](C(=O)O)CC4)c3C(F)(F)F)C[C@@H]21 [Example 264, trans-4-(4-((2-(3,5-dichloropyridin-4-yl)-2-oxoethyl)-((1R,3r,5S)-6,6-dimethyl-3-bicyclo[3.1.0]hexanyl)carbamoyl)-5-(trifluoromethyl)pyrazol-1-yl)cyclohexane-1-carboxylic acid]"
12,18200 pM,CC(C)(C)CN(CC(=O)c1c(Cl)cccc1C(F)(F)F)C(=O)c1cnn([C@H]2CC[C@](C)(C(=O)O)CC2)c1C(F)(F)F [Example 265]
13,5370 pM,"CC1(C)CC(CN(CC(=O)c2c(Cl)cc(F)cc2Cl)C(=O)c2cnn(C34CCC(C(=O)O)(CC3)CC4)c2C(F)(F)F)C1 [Example 266, 4-(4-((2-(2,6-dichloro-4-fluorophenyl)-2-oxoethyl)-((3,3-dimethylcyclobutyl)methyl)carbamoyl)-5-(trifluoromethyl)pyrazol-1-yl)bicyclo[2.2.2]octane-1-carboxyIic acid]"
14,13500 pM,"CC12CCC(CN(CC(=O)c3c(Cl)cncc3Cl)C(=O)c3cnn([C@H]4CC[C@](C)(C(=O)O)CC4)c3C(F)(F)F)(CC1)C2 [Example 267, trans-4-(4-((2-(3,5-dichloropyridin-4-yl)-2-oxoethyl)-((1-methyl-4-bicyclo[2.2.1]heptanyl)methyl)carbamoyl)-5-(trifluoromethyl)pyrazol-1-yl)-1-methylcyclohexane-1-carboxylic acid]"
15,107000 pM,"Cc1cc(Cl)cc(C)c1C(=O)CN(Cc1cc(F)cc(F)c1)C(=O)c1cnn([C@H]2CC[C@H](C(=O)O)CC2)c1C(F)(F)F [Example 268, trans-4-(4-((2-(4-chloro-2,6-dimethylphenyl)-2-oxoethyl)-((3,5-difluorophenyl)methyl)carbamoyl)-5-(trifluoromethyl)pyrazol-1-yl)cyclohexane-1-carboxylic acid]"
16,8130 pM,"Cc1cc(C)c(C(=O)CN(Cc2cc(F)cc(F)c2)C(=O)c2cnn([C@H]3CC[C@H](C(=O)O)CC3)c2C(F)(F)F)c(Cl)c1 [Example 269, trans-4-(4-((2-(2-chloro-4,6-dimethylphenyl)-2-oxoethyl)-((3,5-difluorophenyl)methyl)carbamoyl)-5-(trifluoromethyl)pyrazol-1-yl)cyclohexane-1-carboxylic acid]"
17,16200 pM,"C[C@]1(C(=O)O)CC[C@H](n2ncc(C(=O)N(CC(=O)c3c(Cl)cccc3C(F)(F)F)CC3(F)CCCC3)c2C(F)(F)F)CC1 [Example 270, trans-4-(4-((2-(2-chloro-6-(trifluoromethyl)phenyl)-2-oxoethyl)-((1-fluorocyclopentyl)methyl)carbamoyl)-5-(trifluoromethyl)pyrazol-1-yl)-1-methylcyclohexane-1-carboxylic acid]"
18,5130 pM,"O=C(CN(CC1(F)CCCC1)C(=O)c1cnn(C23CCC(C(=O)O)(CC2)CC3)c1C(F)(F)F)c1c(Cl)cc(F)cc1Cl [Example 271, 4-(4-((2-(2,6-dichloro-4-fluorophenyl)-2-oxoethyl)-((1-fluorocyclopentyl)methyl)carbamoyl)-5-(trifluoromethyl)pyrazol-1-yl)bicyclo[2.2.2]octane-1-carboxylic acid]"
19,11200 pM,"C[C@]1(C(=O)O)CC[C@H](n2ncc(C(=O)N(CC(=O)c3c(Cl)cncc3Cl)CC3(F)CCCC3)c2C(F)(F)F)CC1 [Example 272, trans-4-(4-((2-(3,5-dichloropyridin-4-yl)-2-oxoethyl)-((1-fluorocyclopentyl)methyl)carbamoyl)-5-(trifluoromethyl)pyrazol-1-yl)-1-methylcyclohexane-1-carboxylic acid]"
20,14100 pM,"CC1(C)CCC(N(CC(=O)c2c(Cl)cc(F)cc2Cl)C(=O)c2cnn(C34CCC(C(=O)O)(CC3)CC4)c2C(F)F)CC1 [Example 273, 4-(4-((2-(2,6-dichloro-4-fluorophenyl)-2-oxoethyl)-(4,4-dimethylcyclohexyl)carbamoyl)-5-(difluoromethyl)pyrazol-1-yl)bicyclo[2.2.2]octane-1-carboxylic acid]"
21,8320 pM,"CC12CCC(CN(CC(=O)c3c(Cl)cc(F)cc3Cl)C(=O)c3cnn([C@H]4CC[C@](C)(C(=O)O)CC4)c3C(F)(F)F)(CC1)C2 [Example 274, trans-4-(4-((2-(2,6-dichloro-4-fluorophenyl)-2-oxoethyl)-((1-methyl-4-bicyclo[2.2.1]heptanyl)methyl)carbamoyl)-5-(trifluoromethyl)pyrazol-1-yl)-1-methylcyclohexane-1-carboxylic acid]"
22,< 3470 pM,"CC12CCC(CN(CC(=O)c3c(Cl)cc(Cl)cc3Cl)C(=O)c3cnn([C@H]4CC[C@](C)(C(=O)O)CC4)c3C(F)(F)F)(CC1)C2 [Example 275, trans-4-(4-((1-methyl-4-bicyclo[2.2.1]heptanyl)methyl-(2-oxo-2-(2,4,6-trichlorophenyl)ethyl)carbamoyl)-5-(trifluoromethyl)pyrazol-1-yl)-1-methylcyclohexane-1-carboxylic acid]"
